Entries after “also recorded” stand apart in the source; their conditions may differ.
Key:
Format in all cases: cell-based
BRD4 [1] = target: T1, BRD4 (Homo sapiens, UniProt O60885); assay: CURE-PRO-mediated BRD4 degradation in HeLa cells, Western blot; parameters: endogenous in cells; host or cells: HeLa; details: 24 h; for BRD4 expression: BRD monomer alone, HeLa, 1 nM-1 μM; for BRD4 degradation: 10 μM each
Description: (§1) All cell lines were purchased from ATCC or DSMZ and grown at 37° C. with 5% CO2. Human HeLa cells were cultured in complete growth medium (Dulbecco's modified Eagle's medium (DMEM) supplemented with 10% FBS); MCF7 cells were cultured in complete growth medium (Dulbecco's modified Eagle's medium (DMEM) supplemented with 10% FBS and 0.01 mg/ml human recombinant insulin (Sigma Aldrich); Namalwa and Ramos cells were cultured in complete growth medium (RPMI 1640 medium supplemented with 10% FBS); HCT116 and HT29 cells were cultured in complete growth medium (McCoy's 5a Medium supplemented with 10% FBS). For cellular degradation of BRD4 studies cells were seeded in a 12-well plate at 70-80% confluency, allowed to attach overnight, and incubated with the indicated compounds for the indicated time. When indicated, a 15-minute pretreatment with 10 μM pomalidomide, 10 μM VHL298, 10 μM Nutlin3a, 1 μM MG-132 or 1 μM Carfilzomib was performed before the addition of CURE-PROs. For washout studies, after CURE-PRO treatment, media was aspirated and incubated with complete medium for the indicated time before lysis.
(§2) Namalwa, Ramosm HeLa, MCF7, or HT29 HCT116 cells (2.5-3×10^6) were treated for 24 hours with the indicated compounds solubilized in DMSO. The cells were washed in ice-cold PBS and were then lysed in RIPA lysis buffer (150 mM NaCl, 5 mM EDTA, 1% NP-40, 0.5% sodium deoxycholate, 0.1% SDS, 50 mM Tris, pH 8.0.) with Roche protease inhibitor complete cocktail and phosphatase inhibitors (10 mM sodium fluoride, 10 mM sodium pyrophosphate, 1 mM sodium orthovanadate and 20 mM β-glycerophosphate). The total protein concentrations were determined by Bradford Protein Assay (Pierce) and 10-20 μg of protein was loaded onto 4-15% Tris-Glycine gradient gels (Biorad). After standard gel electrophoresis, the separated proteins were transferred to PVDF membrane by wet transfer. The immunoblots were then blocked for 1 hour in 5% skim milk in TBST or 5% BSA in TBST, according to manufacturer's instructions, before an overnight incubation at 4° C. with indicated antibodies and membranes. Membranes were then incubated with the appropriate horseradish peroxidase-conjugated secondary antibodies (1:5,000 dilution) for 1 h at room temperature and the bands were visualized using the Clarity Max Western ECL Substrate (Biorad) and the ChemiDoc Imaging System (Biorad). Signal was detected with ECL Western Blotting Substrate (Pierce) and X-ray film processed with a Konica SRX-101 X-ray film processor or captured by Bio-Rad's Chemidoc Imaging system.
HeLa cells (2.5×10^6) were treated for 24 hours with the sample compounds solubilized in DMSO. Compounds were added at 1-10 μM each. Standardized protein samples were electrophoresed and imaged as described in the immunoblotting description above. FIGS. 6-18 depicts the CURE-PRO-mediated BRD4 degradation for BRD monomers (JQ1 derivatives comprising of catechol linkers), and CRBN ligands, 8048 and 8049 (pomalidomide derivatives comprising boronic acid linkers) combined in a 1:1 ratio.
HeLa cells (2.5×10^6) were treated for 24 hours with the compounds solubilized in DMSO. The compounds were added at 10 μM each. Standardized protein samples were electrophoresed and imaged as described in the immunoblotting section above. FIGS. 23-27 depicts the CURE-PRO-mediated BRD4 degradation for BRD monomers (JQ1 derivatives comprising of boronic acid linkers), and CRBN ligands, 8046, 8047 and 8066 (pomalidomide derivatives comprising diol linkers) combined in a 1:1 ratio.
HeLa cells (2.5×10^6) were treated for 24 hours with the compounds solubilized in DMSO. Compounds were added at 10 μM and 100 μM each. Standardized protein samples were electrophoresed and imaged as described in the immunoblotting section above.
HeLa cells (2.5×10^6) were treated for 24 hours with the compounds solubilized in DMSO. Compounds were added at 1 nM-1 μM each. […]

BRD4 [2] = target: T1, BRD4; assay: CURE-PRO-mediated BRD4 degradation in HCT116 cells, WES (ProteinSimple); parameters: endogenous in cells; details: 1 μM-10 μM each
Description: as §1
(§3) WES Simple analysis was performed on WES system (ProteinSimple-Biotechne) according to the manufacturer's instructions. Total protein concentrations of cell lysates were determined by the Pierce BCA kit (Thermo Fisher). 3 μL of 0.3 μg/μL of the protein lysate was loaded onto a 12- to 230-kDa WES assay plate (ProteinSimple) where 300 nL sample was withdrawn through a capillary, subjected to electrophoretic separation of proteins by size, and followed by the simultaneous, HRP-based detection of proteins using the Anti-Rabbit Detection Module (Proteinsimple: #DM-001). The electropherograms were checked then the automatic peak detection was manually corrected if it was required.
(§4) HCT116 cells (3×10^6) were treated for 24 hours with the compounds solubilized in DMSO. Compounds were added at 1 μM-10 μM each. Standardized protein samples were electrophoresed and imaged as described in the WES ProteinSimple section above. FIGS. 59, 60, and 61 depict the concentration-dependence of CURE-PRO-mediated BRD4 degradation using MDM2 ligands.
as §4, with “62” for “59, 60,”, “63” for “61”
HCT116 cells (3×10^6) were treated for 24 hours with the compounds solubilized in DMSO. CURE-PRO monomers were added at 10 μM each and the proteasomal inhibitors at 1 μM. Standardized protein samples were electrophoresed and imaged as described in the WES ProteinSimple section above. FIG. 68 depicts the dependence of the proteasome for CURE-PRO-mediated BRD4 degradation.

BRD4 [3] = target: T1, BRD4; assay: Summary of BRD4 degradation by CURE-PRO pairs, estimated from Western Blot or WES; parameters: endogenous in cells; details: for Degradation of BRD4, combination with CRBN ligand 8046: Table 1, aryl-boronic acid BRD4 ligand + 8046; for Degradation of BRD4, combination with CRBN ligand 8066: Table 1, aryl-boronic acid BRD4 ligand + 8066; for Degradation of BRD4, combination with MDM2 ligand 8314: Table 2, aryl-boronic acid BRD4 ligand + 8314; for Degradation of BRD4, combination with CRBN ligand 8047: Table 1, aryl-boronic acid BRD4 ligand + 8047
Description: as §2, §3
A black check mark indicates efficacy of 30% to 70% or higher protein degradation.

MV-4-11 cells = assay: CellTiter-Glo cell viability, MV-4-11 cells; details: cotreated 1:1 with each of CRBN ligands 8046, 8047 and 8066, MV-4-11, 72 h, 10 nM-100 μM
Description: CellTiter-Glo® 2.0 Cell Viability Assay (Promega) was carried out following the manufacturer's recommendations. Cells were seeded at a density of 1000 cells/well in a white 96 well plates (Corning, #3917) in a total volume of 100 μl with respective monomers, combinations of BRD ligands together with E3 ligase ligands or vehicle control treatment. After a 72 h incubation, 100 ul of the CellTiter-Glo® substrate was added per well and luminescence was read on a Spectramax M5 (Molecular Devices). Dose-response curves were generated using Graphpad Prism software.
MV-4-11 cells (5×10^4) were treated for 24 hours with the sample compounds solubilized in DMSO. The compounds were added at 1 nM-100 μM each. Cellular viability was determined using the CellTiter-Glo® Luminescent Cell Viability Assay (Promega) described above. FIGS. 19-22 depict the CURE-PRO-mediated loss of cellular viability for BRD monomers (JQ1 derivatives comprising of catechol linkers), and CRBN ligand, 8049 (pomalidomide derivatives comprising boronic acid linkers) combined in a 1:1 ratio.
MV-4-11 cells (1×10^4) were treated for 72 hours with the compounds solubilized in DMSO. Compounds were added at 10 nM-100 μM each. Cellular viability was determined using the CellTiter-Glo® Luminescent Cell Viability Assay (Promega) described above. FIGS. 47-54 depict the CURE-PRO-mediated loss of cellular viability for BRD monomers (JQ1 derivatives comprising of boronic acid linkers), and CRBN ligands, 8046, 8047 and 8066 (pomalidomide derivatives comprising diol linkers) combined in a 1:1 ratio.

[4] = co-treated 1:1 with CRBN ligand 8046, HeLa
[5] = co-treated 1:1 with CRBN ligand 8066, HeLa
[6] = 1:1 with MDM2 ligand 8313, HCT116, 24 h
[7] = 1:1 with MDM2 ligand 8314, HCT116, 24 h

COc1ccc2c(c1)C(c1ccc(Cl)cc1)=N[C@@H](CC(=O)NCCCCCNC(=O)c1cccc(B(O)O)c1)c1nnc(C)n1-2 [BRD-E8] was tested, and the “concentration-dependent BRD4 degradation” value (BRD4 [1]; 1:1 with CRBN ligand 8046, HeLa, 1 nM-1 μM each) was “Degradation is observed at 100 nM and 1 μM”, the BRD4 expression (BRD4 [1]) was “no change in expression is observed” and the BRD4 degradation (BRD4 [1]; [4]) was “causes degradation of BRD4; also recorded: Degradation is noted”. The BRD4 degradation (BRD4 [1]; [5]) was “causes degradation of BRD4; also recorded: Degradation is noted”, the BRD4 degradation (BRD4 [2]; [6]) was “had no effect on BRD4 protein levels” and the BRD4 degradation (BRD4 [2]; [7]) was “caused partial loss of the BRD4 protein; also recorded: Degradation is observed”. For the same molecule, the “Degradation of BRD4, combination with CRBN ligand 8046” value (BRD4 [3]) was “√ (A black check mark indicates efficacy of 30% to 70% or higher protein degradation)”, the “Degradation of BRD4, combination with CRBN ligand 8066” value (BRD4 [3]) was “√ (A black check mark indicates efficacy of 30% to 70% or higher protein degradation)” and the “Degradation of BRD4, combination with MDM2 ligand 8314” value (“Degradation … with MDM2 ligand 8314” below) (BRD4 [3]) was “√ (A black check mark indicates efficacy of 30% to 70% or higher protein degradation)”.

With COc1ccc2c(c1)C(c1ccc(Cl)cc1)=N[C@@H](CC(=O)NCCc1ccc(B(O)O)cc1)c1nnc(C)n1-2 [BRD-E14, (4-(2-(2-((4S)-6-(4-chlorophenyl)-8-methoxy-1-methyl-4H-benzo[f][1,2,4]triazolo[4,3-a][1,4]diazepin-4-yl)acetamido)ethyl)phenyl)boronic acid] the BRD4 degradation (BRD4 [1]; co-treated 1:1 with CRBN ligand 8047, HeLa) was “causes degradation of BRD4; also recorded: Degradation is noted”, the BRD4 degradation (BRD4 [2]; [6]) was “had no effect on BRD4 protein levels” and the BRD4 degradation (BRD4 [2]; [7]) was “caused partial loss of the BRD4 protein; also recorded: Degradation is observed”. For the same molecule, the “Degradation of BRD4, combination with CRBN ligand 8047” value (“Degradation … with CRBN ligand 8047” for short) (BRD4 [3]) was “√ (A black check mark indicates efficacy of 30% to 70% or higher protein degradation)”, the “Degradation … with MDM2 ligand 8314” value (BRD4 [3]) was “√ (A black check mark indicates efficacy of 30% to 70% or higher protein degradation)” and the “Degradation of BRD4, combination with VHL ligand 8305” value (BRD4 [3]; Table 3, aryl-boronic acid BRD4 ligand + 8305) was “√ (A black check mark indicates efficacy of 30% to 70% or higher protein degradation)”.

CCNC(=O)C[C@@H]1N=C(c2ccc(Cl)cc2)c2cc(OCCNC(=O)c3cccc(B(O)O)c3)ccc2-n2c(C)nnc21 [BRD-E21, (3-((2-(((4S)-6-(4-chlorophenyl)-4-(2-(ethylamino)-2-oxoethyl)-1-methyl-4H-benzo[f][1,2,4]triazolo[4,3-a][1,4]diazepin-8-yl)oxy)ethyl)carbamoyl)phenyl)boronic acid] was tested, and the “concentration from which BRD4 degradation is observed” value (BRD4 [1]; 1:1 with CRBN ligand 8047, HeLa, 1 nM-1 μM each) was ≥ 10 nM, the BRD4 expression (BRD4 [1]) was “no change in expression is observed” and the BRD4 degradation (BRD4 [2]; [6]) was “had no effect on BRD4 protein levels”. The BRD4 degradation (BRD4 [2]; [7]) was “caused partial loss of the BRD4 protein; also recorded: Degradation is observed”, the “Degradation … with CRBN ligand 8047” value (BRD4 [3]) was “√ (A black check mark indicates efficacy of 30% to 70% or higher protein degradation)” and the “Degradation … with MDM2 ligand 8314” value (BRD4 [3]) was “√ (A black check mark indicates efficacy of 30% to 70% or higher protein degradation)”.

For COc1ccc2c(c1)C(c1ccc(Cl)cc1)=N[C@@H](CC(=O)Nc1cccc(B(O)O)c1)c1nnc(C)n1-2 [BRD-E73, (3-(2-((4S)-6-(4-chlorophenyl)-8-methoxy-1-methyl-4H-benzo[f][1,2,4]triazolo[4,3-a][1,4]diazepin-4-yl)acetamido)phenyl)boronic acid], the “loss of cellular viability (toxicity) versus monomers alone” value (MV-4-11 cells) was “reduced viability; also recorded: increased toxicity”.

With CCNC(=O)C[C@@H]1N=C(c2ccc(Cl)cc2)c2cc(OCCCCCCNC(=O)c3ccc(B(O)O)cc3)ccc2-n2c(C)nnc21 [BRD-E79, (4-((6-(((4S)-6-(4-chlorophenyl)-4-(2-(ethylamino)-2-oxoethyl)-1-methyl-4H-benzo[f][1,2,4]triazolo[4,3-a][1,4]diazepin-8-yl)oxy)hexyl)carbamoyl)phenyl)boronic acid] the BRD4 degradation (BRD4 [1]; [4]) was “causes degradation of BRD4; also recorded: Degradation is noted”, the BRD4 degradation (BRD4 [1]; [5]) was “causes degradation of BRD4; also recorded: Degradation is noted” and the BRD4 degradation (BRD4 [2]; [6]) was “caused BRD4 protein degradation at 1 and 10 μM; also recorded: Degradation of BRD4 is observed”. For the same molecule, the BRD4 degradation (BRD4 [2]; [7]) was “no protein loss was observed”, the “Degradation of BRD4, combination with CRBN ligand 8046” value (BRD4 [3]) was “√ (A black check mark indicates efficacy of 30% to 70% or higher protein degradation)” and the “Degradation … with CRBN ligand 8047” value (BRD4 [3]) was “√ (A black check mark indicates efficacy of 30% to 70% or higher protein degradation)”. For the same molecule, the “Degradation of BRD4, combination with CRBN ligand 8066” value (BRD4 [3]) was “√ (A black check mark indicates efficacy of 30% to 70% or higher protein degradation)” and the “Degradation of BRD4, combination with MDM2 ligand 8313” value (BRD4 [3]; Table 2, aryl-boronic acid BRD4 ligand + 8313) was “√ (A black check mark indicates efficacy of 30% to 70% or higher protein degradation)”.
